From article PMC6539868, “Syntheses and Biological Studies of Cu(II) Complexes Bearing Bis(pyrazol-1-yl)- and Bis(triazol-1-yl)-acetato Heteroscorpionate Ligands” (Molecules, 2019)

How the values were obtained:
2008 = test: MTT cytotoxicity assay, 2D monolayer; type: cell-based, human; conditions: 72 h, MTT test, ovarian cancer; read-out: IC50 (µM) ± S.D. 2008
Excerpt: (§1) Human lung (A549), colon (HCT-15 and LoVo) and breast (MCF-7) carcinoma cell lines were obtained from American Type Culture Collection (ATCC, Rockville, MD, USA). Human pancreatic BxPC3 carcinoma cells were obtained from European Collection of Cell Culture (ECACC, Salisbury, UK). Human ovarian 2008 cancer cells were kindly provided by Prof. G. Marverti (Dept. of Biomedical Science of Modena University, Modena, Italy). Human squamous cervical A431 carcinoma cells were kindly provided by Prof. F. Zunino (Division of Experimental Oncology B, Istituto Nazionale dei Tumori, Milan, Italy). The LoVo-OXP cells were obtained as previously described. Cell lines were maintained in culture in the logarithmic phase at 37 °C in a 5% carbon dioxide atmosphere using the following media added of 10% fetal calf serum (Euroclone, Milan, Italy), antibiotics (50 units/mL penicillin and 50 μg/mL streptomycin), and 2 mM L-glutamine: (i) RPMI-1640 medium (Euroclone) for HCT-15, A431, MCF-7, BxPC3 and 2008 cells; (ii) F-12 HAM’S (Sigma Chemical Co.) for A549, LoVo and LoVo-OXP cells.
(§2) The growth inhibitory effect towards 2D tumor cell lines was evaluated by means of MTT assay as previously described. IC50 values were calculated by four parameters logistic (4-PL) model. All the values are the means ± SD of not less than five measurements starting from three different cell cultures.
(§3) The in vitro antitumor activity of copper(II) complexes 1–3 and the uncoordinated ligands [HC(COOH)(pz^Me2)2], [HC(COOH)(pz)2] and [HC(COOH)(tz)2] was evaluated against a panel of human cancer cell lines derived from solid tumors. Adherent cell lines representative of cervical (A431), pancreatic (BxPC3) colon (HCT-15), breast (MCF-7), lung (A549), and ovarian (2008) cancers, differently sensitive to cisplatin, were exposed to the indicated compounds for 72 h.

A431 = test: MTT cytotoxicity assay, 2D monolayer; type: cell-based, human; conditions: 72 h, MTT test, cervical carcinoma; read-out: IC50 (µM) ± S.D. A431
Excerpt: as §1, §2, §3

A549 = test: MTT cytotoxicity assay, 2D monolayer; type: cell-based, human; conditions: 72 h
Excerpt: as §1, §2, §3

BxPC3 = test: MTT cytotoxicity assay, 2D monolayer; type: cell-based, human; conditions: 72 h, MTT test, pancreatic carcinoma; read-out: IC50 (µM) ± S.D. BxPC3
Excerpt: as §1, §2, §3

HCT-15 = test: MTT cytotoxicity assay, 2D monolayer; type: cell-based, human; conditions: 72 h
Excerpt: as §1, §2, §3

MCF-7 = test: MTT cytotoxicity assay, 2D monolayer; type: cell-based, human; conditions: 72 h, MTT test, breast carcinoma; read-out: IC50 (µM) ± S.D. MCF-7
Excerpt: as §1, §2, §3

LoVo-OXP = test: MTT cytotoxicity assay, cross-resistance profile; type: cell-based, human
Excerpt: as §1, §2
(§4) HCT-15 colon cancer cells are notoriously poorly chemosensitive to cisplatin. […] As for cisplatin, the clinical effectiveness of OXP is seriously hampered by the cancer cell resistance and, at present, few other drug regimens are available for patients with OXP-refractory colorectal cancers. […] The RF values (calculated by dividing IC50 for resistant cells by those for sensitive ones) were about 10 times lower than that of OXP, excluding the occurrence of cross-resistance phenomena.

LoVo = test: MTT cytotoxicity assay, cross-resistance profile; type: cell-based, human; conditions: 72 h, MTT test, oxaliplatin-sensitive colon cancer cells; read-out: IC50 (µM) ± S.D. LoVo
Excerpt: as §1, §2, §4

[1] = system: HCT-15 colon cancer cell spheroids; test: Acid phosphatase (APH) assay in 3D spheroids; type: cell-based, human; conditions: 72 h, APH test, read-out: IC50 (µM) ± S.D. HCT-15 spheroids
Description: Spheroid cultures were obtained by seeding 2.5 × 10^3 HCT-15 cells/well in round bottom non-tissue culture treated 96 well-plate (Greiner Bio-one, Kremsmünster, Austria) in phenol red free RPMI-1640 medium (Sigma Chemical Co.), containing 10% FCS and supplemented with 20% methyl cellulose stock solution.
An APH modified assay was used for determining cell viability in 3D spheroids, as previously described. IC50 values were calculated with a four parameter logistic (4-PL) model. All the values are the means ± SD of not less than four independent experiments.
The in vitro antitumor efficacy of the newly developed compounds was also tested on 3D colon cancer cell culture models. Differently from 2D monolayer culture, 3D spheroid cell culture systems comprise cancer cells in various cell growth stages. Consequently, the multicellular cancer spheroid model is recognized to better reflect the tumor mass in vivo regarding drug permeation, cell interactions, gene expression, hypoxia and nutrient gradients with respect to monolayer cell cultures. Table 4 summarizes the IC50 values obtained after treatment of 3D cell spheroids of human HCT-15 colon cancer cells with copper(II) compounds as well as with cisplatin, as reference drug. In accordance with 2D chemosensitivity assays, complex 3 was scarcely effective, whereas complex 1 was as effective as cisplatin. […] We hypothesize that in this non-proliferative and very resistant tumor model the higher lipophilicity of 1, due to the presence of methyl substituents on the pyrazolyl rings, might be responsible for the enhanced compound penetration in the core area of spheroids.

[2] = system: panel of human cancer cell lines derived from solid tumors; test: MTT cytotoxicity, whole panel of human cancer cell lines; type: cell-based; conditions: mean over the cell lines of Table 2, 72 h
Description: as §2, §3, §4

LoVo cells [3] = test: Cellular uptake (intracellular copper by GF-AAS); type: cell-based, human; conditions: 24 h, 2 μM
Description: LoVo cells (2.5 × 10^6) were seeded in 75 cm^2 flasks in growth medium (20 mL). After overnight incubation, the medium was replaced, and the cells were treated with tested compounds for 24 h. Cell monolayers were then processed and mineralized as previously described. The sample was analyzed for copper by using a Varian AA Duo graphite furnace atomic absorption spectrometer (Varian, Palo Alto, CA, USA) at the wavelength of 324 nm. The calibration curve was obtained using known concentrations of standard solutions purchased from Sigma Chemical Co.
With the purpose of underling a possible correlation between cellular uptake efficiency and cytotoxicity, LoVo cells were treated for 24 h with equimolar concentrations (2 μM) of copper(II) complexes and the intracellular copper amount was quantified by means of Graphite Furnace Atomic Absorption Spectrometry (GF-AAS) analysis. […] In fact, the intracellular copper content detected in LoVo cells follows the same cytotoxicity trend 1 > 2 > 3.

LoVo cells [4] = test: Transmission electron microscopy (TEM) analysis; type: cell-based, human; conditions: IC50 of compound, 24 h
Description: Approximately 10^6 LoVo cells were seeded in 24-well plates and, after 24 h incubation, treated with 1 and incubated further 24 h. Samples were then washed with cold PBS, harvested and fixed with 1.5% glutaraldehyde buffer with 0.2 M sodium cacodylate, pH 7.4. After washing with buffer and post-fixation with 1% OsO4 in 0.2 M cacodylate buffer, samples were desiccated and embedded in epoxy resin (Epon Araldite). Sagittal serial sections of about 1 μm were counterstained with toluidine blue; subsequently, sections of 90 nm were stained with uranyl acetate and lead citrate.
Micrographs were taken with a Hitachi H-600 electron microscope (Hitachi, Tokyo, Japan) at 75 kV. All photos were elaborated in Corel Draw 11 (Corel Corporation, Ottawa, ON, Canada).
Transmission electron microscopy (TEM) analysis has been performed in order to investigate the influence of copper compounds on LoVo cells morphology and their organelles.

Solubility = type: physicochemical
Stability to air = type: physicochemical; conditions: also as solutions
LoVo cells [5] = test: ROS production (CM-H2DCFDA); type: cell-based, human; conditions: 15 μM complexes, antimycin 3 μM
Description: The production of ROS was measured in LoVo cells (10^4 per well) grown for 24 h in a 96-well plate in RPMI medium without phenol red. Samples were loaded with 10 μM 5-(and-6)-chloromethyl-2′,7′-dichlorodihydrofluorescein diacetate acetyl ester (CM-H2DCFDA) (Molecular Probes-Invitrogen, Eugene, OR, USA) for 25 min, in the dark. Afterward, each well was washed with PBS and incubated with tested complexes. The fluorescence intensity in each well was assessed by means of a Fluoroskan Ascent FL (Labsystem, Vantaa, Finland) plate reader (ex: 485 nm; em: 527 nm). Antimycin (3 μM, Sigma), a well-known inhibitor of the electron transport chain at Complex III level, was used as reference compound.
It has been documented that oxidative stress and generation of ROS play a significant role in anticancer activity of copper(II) compounds [22, 81]. To explore the molecular mechanisms underlying the cytotoxicity of newly synthetized copper(II) complexes, cellular production of ROS upon treatment with 15 μM of complex 1, 2 or 3 was monitored in LoVo cells by using the peroxide-sensitive fluorescent probe CM-H2DCFDA (Figure 5). […] Conversely, for all copper complexes there was no ROS induction.

Cc1cc(C)n(C(C(=O)O)n2nc(C)cc2C)n1.Cc1cc(C)n(C(C(=O)[O-])n2nc(C)cc2C)n1.[Cu+2].[O-][Cl+3]([O-])([O-])[O-] [compound 1, [HC(COOH)(pz^Me2)2]Cu[HC(COO)(pz^Me2)2]·ClO4]
IC50 2008: 10.8 ± 1.3 µM | IC50 (A431): 3.8 ± 1.1 µM | IC50 (A549; MTT test, lung carcinoma, read-out: IC50 (µM) ± S.D. A549): 3.6 ± 0.5 µM | fold more effective than cisplatin (A549; A549 cells, MTT): roughly 2 fold | IC50 (BxPC3): 2.5 ± 0.4 µM | IC50 (HCT-15; MTT test, colon carcinoma, read-out: IC50 (µM) ± S.D. HCT-15): 8.5 ± 0.6 µM | fold more effective than cisplatin (HCT-15; HCT-15 cells, MTT): roughly 2 fold | IC50 (MCF-7): 10.5 ± 2.1 µM | IC50 (LoVo-OXP; 72 h, MTT test, oxaliplatin-resistant colon cancer cells, read-out: IC50 (µM) ± S.D. LoVo-OXP): 5.2 ± 0.6 µM | RF times lower than that of OXP (LoVo-OXP; LoVo-OXP/LoVo): about 10 times | RF (resistance factor) (LoVo-OXP; RF = IC50 (resistant cells)/IC50 (wild-type cells), LoVo-OXP/LoVo): 1.2 | IC50 (LoVo): 4.2 ± 0.9 µM | IC50 [1]: 67.8 ± 14.9 µM | IC50 [2]: 6.5 µM | cellular uptake efficiency (intracellular copper amount) (LoVo cells [3]): taken up slightly more efficiently than complex 2 | cytoplasmic vacuolization (TEM morphology) (LoVo cells [4]): massive cytoplasmic vacuolization | hallmarks of apoptosis (TEM morphology) (LoVo cells [4]): no classical hallmarks of apoptosis | solubility in methanol, DMSO and acetonitrile (Solubility; methanol, DMSO, acetonitrile): soluble | solubility in water (Solubility; water): slightly soluble | air stability (Stability to air): air stable even as solutions

Antimycin
ROS production (LoVo cells [5]): markedly stimulated ROS formation
